Source: US5679701A (priority 1996, dated 1997)
Like-named read-outs stand apart in the source and are kept apart here.

Legend:
[1] = molecular target: T1, ryanodine receptor (skeletal sarcoplasmic reticulum membrane vesicles) (Oryctolagus cuniculus, UniProt P11716); experiment: biochemical; type: binding
T1 construct: skeletal sarcoplasmic reticulum membrane vesicles; from tissue; host or cells: skeletal muscle sarcoplasmic reticulum membrane vesicles

[2] = molecular target: T2, Sarcoplasmic Reticular Ca^++ -Release Channel (ryanodine receptor) (Oryctolagus cuniculus, UniProt P11716); experiment: biochemical; type: binding
T2 construct: skeletal sarcoplasmic reticulum membrane vesicles; from tissue; host or cells: skeletal muscle sarcoplasmic reticulum membrane vesicles
T2 sequence (P11716 whole entry): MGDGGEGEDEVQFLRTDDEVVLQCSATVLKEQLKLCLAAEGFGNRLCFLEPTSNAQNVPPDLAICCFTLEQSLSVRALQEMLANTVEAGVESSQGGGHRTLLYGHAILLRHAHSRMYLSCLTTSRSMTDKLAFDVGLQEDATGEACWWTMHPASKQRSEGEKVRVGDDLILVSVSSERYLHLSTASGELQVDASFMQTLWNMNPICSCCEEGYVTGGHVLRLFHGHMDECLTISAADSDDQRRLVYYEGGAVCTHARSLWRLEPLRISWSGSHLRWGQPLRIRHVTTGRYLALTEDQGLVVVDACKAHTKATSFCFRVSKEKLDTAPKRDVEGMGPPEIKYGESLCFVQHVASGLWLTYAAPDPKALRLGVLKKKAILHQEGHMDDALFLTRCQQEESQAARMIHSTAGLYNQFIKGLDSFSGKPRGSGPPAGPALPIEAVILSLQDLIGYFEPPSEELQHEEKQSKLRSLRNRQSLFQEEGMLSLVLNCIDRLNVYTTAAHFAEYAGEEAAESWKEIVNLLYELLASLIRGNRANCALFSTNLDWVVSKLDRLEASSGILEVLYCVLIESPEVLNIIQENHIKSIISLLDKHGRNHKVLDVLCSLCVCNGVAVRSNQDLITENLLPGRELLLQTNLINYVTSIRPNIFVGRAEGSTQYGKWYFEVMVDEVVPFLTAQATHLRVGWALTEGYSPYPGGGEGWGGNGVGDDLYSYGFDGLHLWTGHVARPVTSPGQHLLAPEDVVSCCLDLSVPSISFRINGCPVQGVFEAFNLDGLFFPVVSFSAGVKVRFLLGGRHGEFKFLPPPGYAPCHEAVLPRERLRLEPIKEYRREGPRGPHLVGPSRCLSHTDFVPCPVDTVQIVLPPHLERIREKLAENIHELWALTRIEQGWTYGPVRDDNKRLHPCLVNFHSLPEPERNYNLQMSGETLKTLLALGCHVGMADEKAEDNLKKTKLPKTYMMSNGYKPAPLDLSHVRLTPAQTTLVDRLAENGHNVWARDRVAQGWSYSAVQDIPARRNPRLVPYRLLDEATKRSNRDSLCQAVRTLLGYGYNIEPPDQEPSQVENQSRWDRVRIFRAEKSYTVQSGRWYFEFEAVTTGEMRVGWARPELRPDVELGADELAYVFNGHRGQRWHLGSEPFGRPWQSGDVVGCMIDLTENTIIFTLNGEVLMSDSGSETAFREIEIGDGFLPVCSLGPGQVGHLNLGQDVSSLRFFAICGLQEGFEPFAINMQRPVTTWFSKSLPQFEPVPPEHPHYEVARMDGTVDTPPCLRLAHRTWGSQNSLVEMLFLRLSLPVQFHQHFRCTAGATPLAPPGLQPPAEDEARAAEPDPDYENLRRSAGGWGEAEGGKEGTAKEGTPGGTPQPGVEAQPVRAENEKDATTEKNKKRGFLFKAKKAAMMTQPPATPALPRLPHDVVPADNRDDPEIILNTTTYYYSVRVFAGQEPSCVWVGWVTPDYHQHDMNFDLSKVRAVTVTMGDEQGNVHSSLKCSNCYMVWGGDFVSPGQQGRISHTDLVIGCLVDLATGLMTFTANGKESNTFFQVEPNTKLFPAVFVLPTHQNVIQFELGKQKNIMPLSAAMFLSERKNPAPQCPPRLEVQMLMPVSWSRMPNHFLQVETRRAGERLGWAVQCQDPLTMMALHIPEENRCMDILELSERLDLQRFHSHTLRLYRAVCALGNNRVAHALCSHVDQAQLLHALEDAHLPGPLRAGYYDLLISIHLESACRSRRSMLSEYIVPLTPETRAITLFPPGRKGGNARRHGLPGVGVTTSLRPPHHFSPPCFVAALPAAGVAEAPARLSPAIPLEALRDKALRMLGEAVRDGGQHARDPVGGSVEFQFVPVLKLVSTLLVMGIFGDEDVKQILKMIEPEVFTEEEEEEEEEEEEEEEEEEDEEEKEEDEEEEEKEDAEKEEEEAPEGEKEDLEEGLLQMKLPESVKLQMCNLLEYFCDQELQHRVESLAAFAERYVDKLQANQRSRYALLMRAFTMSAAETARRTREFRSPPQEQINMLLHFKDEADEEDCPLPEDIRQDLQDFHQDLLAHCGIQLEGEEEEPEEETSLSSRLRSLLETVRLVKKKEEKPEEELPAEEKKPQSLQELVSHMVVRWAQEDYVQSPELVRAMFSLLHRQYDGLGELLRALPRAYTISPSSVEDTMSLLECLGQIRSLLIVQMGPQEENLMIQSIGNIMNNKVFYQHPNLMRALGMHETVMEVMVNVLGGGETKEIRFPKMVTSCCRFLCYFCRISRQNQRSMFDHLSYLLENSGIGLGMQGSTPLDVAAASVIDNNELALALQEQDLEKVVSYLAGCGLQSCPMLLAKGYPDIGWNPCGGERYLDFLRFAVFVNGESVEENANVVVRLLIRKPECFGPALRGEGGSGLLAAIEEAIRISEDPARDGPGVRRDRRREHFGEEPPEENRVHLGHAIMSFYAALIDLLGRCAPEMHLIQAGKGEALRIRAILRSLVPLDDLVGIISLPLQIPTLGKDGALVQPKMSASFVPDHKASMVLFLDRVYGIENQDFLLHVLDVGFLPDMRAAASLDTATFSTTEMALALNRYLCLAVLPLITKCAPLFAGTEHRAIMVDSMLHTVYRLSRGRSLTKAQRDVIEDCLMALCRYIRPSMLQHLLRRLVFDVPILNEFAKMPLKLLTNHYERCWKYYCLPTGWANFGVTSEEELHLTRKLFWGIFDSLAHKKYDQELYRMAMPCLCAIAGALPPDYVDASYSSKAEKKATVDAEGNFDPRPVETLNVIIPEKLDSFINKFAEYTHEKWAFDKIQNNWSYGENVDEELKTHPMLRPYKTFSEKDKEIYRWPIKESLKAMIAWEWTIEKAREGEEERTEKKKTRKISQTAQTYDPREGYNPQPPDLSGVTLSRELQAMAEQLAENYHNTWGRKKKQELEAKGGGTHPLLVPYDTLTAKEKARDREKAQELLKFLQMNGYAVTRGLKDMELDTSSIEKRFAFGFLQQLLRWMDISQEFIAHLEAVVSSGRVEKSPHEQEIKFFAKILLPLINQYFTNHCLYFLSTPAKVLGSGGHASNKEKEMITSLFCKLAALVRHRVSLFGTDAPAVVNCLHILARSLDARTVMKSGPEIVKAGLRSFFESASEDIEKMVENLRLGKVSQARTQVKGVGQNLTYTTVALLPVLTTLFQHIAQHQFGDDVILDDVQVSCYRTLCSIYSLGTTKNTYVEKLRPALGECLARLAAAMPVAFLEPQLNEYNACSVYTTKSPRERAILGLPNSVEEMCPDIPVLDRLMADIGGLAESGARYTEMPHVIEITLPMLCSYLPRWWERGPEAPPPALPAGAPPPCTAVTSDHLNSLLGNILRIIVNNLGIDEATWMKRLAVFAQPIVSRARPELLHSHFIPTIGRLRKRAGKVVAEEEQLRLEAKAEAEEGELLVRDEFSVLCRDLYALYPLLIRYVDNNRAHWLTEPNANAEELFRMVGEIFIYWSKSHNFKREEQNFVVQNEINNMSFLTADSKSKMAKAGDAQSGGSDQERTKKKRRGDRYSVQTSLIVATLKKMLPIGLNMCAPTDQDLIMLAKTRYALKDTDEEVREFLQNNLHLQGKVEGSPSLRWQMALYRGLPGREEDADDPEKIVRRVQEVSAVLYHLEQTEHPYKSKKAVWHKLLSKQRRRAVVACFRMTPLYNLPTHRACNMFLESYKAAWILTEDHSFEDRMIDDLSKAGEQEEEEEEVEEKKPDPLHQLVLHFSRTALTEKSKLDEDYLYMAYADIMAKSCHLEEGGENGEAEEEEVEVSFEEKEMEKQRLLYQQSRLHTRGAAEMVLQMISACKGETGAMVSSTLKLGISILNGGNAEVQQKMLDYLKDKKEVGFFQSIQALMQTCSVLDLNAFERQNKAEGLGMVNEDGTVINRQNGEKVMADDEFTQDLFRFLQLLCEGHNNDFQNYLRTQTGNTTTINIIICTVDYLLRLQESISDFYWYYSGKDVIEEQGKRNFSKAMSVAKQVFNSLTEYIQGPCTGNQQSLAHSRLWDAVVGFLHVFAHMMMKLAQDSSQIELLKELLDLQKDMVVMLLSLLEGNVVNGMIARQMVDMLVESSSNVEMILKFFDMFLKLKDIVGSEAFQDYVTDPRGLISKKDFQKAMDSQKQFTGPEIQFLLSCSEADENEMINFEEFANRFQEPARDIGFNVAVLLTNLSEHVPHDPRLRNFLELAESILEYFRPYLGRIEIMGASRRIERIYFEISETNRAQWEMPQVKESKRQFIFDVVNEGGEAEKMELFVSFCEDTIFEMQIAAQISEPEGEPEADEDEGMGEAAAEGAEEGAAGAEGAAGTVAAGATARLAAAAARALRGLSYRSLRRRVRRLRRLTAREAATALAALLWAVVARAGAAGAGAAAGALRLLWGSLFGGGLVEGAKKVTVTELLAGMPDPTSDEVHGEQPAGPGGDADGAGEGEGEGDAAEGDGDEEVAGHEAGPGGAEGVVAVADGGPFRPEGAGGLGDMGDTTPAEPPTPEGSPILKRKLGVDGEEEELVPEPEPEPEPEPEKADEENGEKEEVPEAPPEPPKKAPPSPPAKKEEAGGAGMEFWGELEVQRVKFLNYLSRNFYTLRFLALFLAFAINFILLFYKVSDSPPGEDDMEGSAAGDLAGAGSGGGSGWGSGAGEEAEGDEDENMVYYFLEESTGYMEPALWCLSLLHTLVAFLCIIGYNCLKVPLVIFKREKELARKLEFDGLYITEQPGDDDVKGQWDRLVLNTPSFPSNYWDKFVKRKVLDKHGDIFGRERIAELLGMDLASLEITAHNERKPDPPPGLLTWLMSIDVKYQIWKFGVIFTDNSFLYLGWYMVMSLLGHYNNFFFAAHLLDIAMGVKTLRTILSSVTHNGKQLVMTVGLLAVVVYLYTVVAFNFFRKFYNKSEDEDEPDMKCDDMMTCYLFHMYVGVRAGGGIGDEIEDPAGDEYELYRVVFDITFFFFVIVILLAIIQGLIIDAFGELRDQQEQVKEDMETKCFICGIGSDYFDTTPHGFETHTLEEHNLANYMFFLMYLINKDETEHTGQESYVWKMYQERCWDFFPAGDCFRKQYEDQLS

[3] = Table I, displacement of 6.7 nM [3H]ryanodine, mean ± standard deviation of replicates, read-out: IC50
[4] = Table I, mean ± standard deviation of replicates, read-out: KD
[5] = first embodiment, read-out: IC50
[6] = Table II, more highly purified standards, read-out: IC50 (nM) ± S.D.

T1 sequence (P11716 whole entry): as above

| SMILES | IC50 [1, 3] [nM] | Kd [1, 4] [nM] | IC50 [1, 5] [nM] | Kd ([1]; first embodiment, read-out: KD) [nM] | IC50 [2, 6] [nM] | other results |
| --- | --- | --- | --- | --- | --- | --- |
| CC1CCC2(O)C3(C)CC4(O)OC2(C1OC(=O)CCNC(=O)CCCCC1SCC2NC(=O)NC21)C1(O)C3(O)C(OC(=O)c2ccc[nH]2)C(O)(C(C)C)C41C (stereo not drawn) [XIV, O10eq -N-Biotinlyl-β-Alanyl-Ryanodine] | 65.1 ± 5.5 | 24.9 ± 1.4 | 65.1 ± 3.5 | 24.9 ± 1.4 |  |  |
| CC1CCC2(O)C3(C)CC4(O)OC2(C1OC(=O)CN)C1(O)C3(O)C(OC(=O)c2ccc[nH]2)C(O)(C(C)C)C41C (stereo not shown) [XXII, O10eq -glycyl-ryanodine] |  |  |  |  | 1.8 ± 0.4 |  |
| C=C1CCC2(O)C3(C)CC4(O)OC2(C1OC(=O)CCNC(=O)c1ccccc1)C1(O)C3(O)C(OC(=O)c2ccc[nH]2)C(O)(C(C)C)C41C (stereo not drawn) [II, O10eg -(N-Benzoyl-β-alanyl)-Dehydroryanodine] | 25.1 ± 8.2 | 8.2 ± 3.2 |  |  |  |  |
| C=C1CCC2(O)C3(C)CC4(O)OC2(C1OC(=O)CCNC(=O)C12CC5CC(CC(C5)C1)C2)C1(O)C3(O)C(OC(=O)c2ccc[nH]2)C(O)(C(C)C)C41C (stereo not drawn) [III, O10eq-[N-(1-Adamantanecarbonyl)-β-Alanyl]-Dehydroryanodine] | 72.8 ± 6.2 | 26.9 ± 3.6 |  |  |  |  |
| CC1CCC2(O)C3(C)CC4(O)OC2(C1OC(=O)CCNC(=O)c1cc(N=[N+]=[N-])ccc1[N+](=O)[O-])C1(O)C3(O)C(OC(=O)c2ccc[nH]2)C(O)(C(C)C)C41C (stereo not drawn) [VI, O10eq-[N-(5-Azido-2-nitrobenzoyl)-β-Alanyl] Ryanodine] | 36.6 ± 2.8 | 12.5 ± 1 | 36.6 ± 2.8 | 12.5 ± 1 |  | binding affinity for the ryanodine receptor (in words) [1]: of a similar magnitude as that of ryanodine; Kd ([1]; VI prepared from V-II, read-out: KD (50)): 12.5 ± 1 nM; IC50 ([1]; VI prepared from V, read-out: IC50): 37.2 ± 9.7 nM; Kd ([1]; VI prepared from V, read-out: KD): 14 ± 3.6 nM |
| CC1=CC(C)=[N+]2C1=Cc1ccc(CCC(=O)NCCC(=O)OC3C(C)CCC4(O)C5(C)CC6(O)OC34C3(O)C5(O)C(OC(=O)c4ccc[nH]4)C(O)(C(C)C)C63C)n1[B-]2(F)F (stereo not drawn) [XV, O10eq -N-BODIPY(FL C3)-β-Alanyl-Ryanodine] | 41.2 ± 2.7 | 15.8 ± 1 | 41.2 ± 2.7 | 15.8 ± 1 |  |  |
| CC1CCC2(O)C3(C)CC4(O)OC2(C1OC(=O)CCNC(=NC(=O)OCc1ccccc1)NC(=O)OCc1ccccc1)C1(O)C3(O)C(OC(=O)c2ccc[nH]2)C(O)(C(C)C)C41C (stereo not drawn) [XX, O10eq -β-N,N'-bis-Cbz-guanidino-propionyl-ryanodine] |  |  |  |  | 43.6 | lessened affinity compared with ryanodine ([2]; vs ryanodine): 7-20 fold |
| CC1CCC2(O)C3(OC4(O)C[C@]2(C)C2(O)[C@H](OC(=O)c5ccc[nH]5)C(O)(C(C)C)C4(C)C32O)[C@@H]1OC(=O)CN=C(N)N (stereo partly shown) [XXIV, O10eq -Guanidinoacetyl-Ryanodine] |  |  |  |  | 1.8 ± 0.2 | IC50 ([2]; second embodiment, read-out: IC50): 1.8 nM |
| C=C1CCC2(O)C3(C)CC4(O)OC2(C1OC(=O)CCNC(=O)OCc1ccccc1)C1(O)C3(O)C(OC(=O)c2ccc[nH]2)C(O)(C(C)C)C41C (stereo not drawn) [XXV, O10eq -CBZ-β-Alanyl-Dehydroryanodine] |  |  |  |  | 4.43 |  |
| C=C1CCC2(O)C3(C)CC4(O)OC2(C1OC(=O)CCNC(=O)c1ccc(I)cc1)C1(O)C3(O)C(OC(=O)c2ccc[nH]2)C(O)(C(C)C)C41C (stereo not drawn) [XII, p-Iodobenzoyl-β-alanyl-dehydroryanodine] | 16 | 5.2 | 16 | 5.2 |  | binding affinity for the ryanodine receptor (in words) [1]: binds effectively to the ryanodine receptor |
| CC1=C(C(C)C)C(OC(=O)c2ccc[nH]2)C2(O)C3(C)CC(=O)OC4(C(OC(=O)CCN)C(C)CCC34O)C12O (stereo not drawn) [V-I, O10eq -β-Alanyl-Anhydroryanodine] | 37 |  | 106 | 37 |  | binding affinity as fraction of that of Ryanodine ([1]; vs ryanodine): 1/10 |
| C=C1CCC2(O)C3(C)CC4(O)OC2(C1OC(=O)CCNC(=O)c1ccc(OCCCC)cc1)C1(O)C3(O)C(OC(=O)c2ccc[nH]2)C(O)(C(C)C)C41C (stereo not drawn) [XIII, O10eq-[N-(p-n-Butoxybenzoyl)-β-Alanyl]-Dehydroryanodine] | 28 ± 6.6 | 9.7 ± 2.5 | 20.2 | 6 |  |  |
| C=C1CCC2(O)C3(C)CC4(O)OC2(C1OC(=O)CCC(=O)O)C1(O)C3(O)C(OC(=O)c2ccc[nH]2)C(O)(C(C)C)C41C (stereo not shown) [XVII, Dehydroryanodine-O10eg -Hemi-Succinate] |  |  |  |  |  | IC50 ([1]; IC50 (nM)): > 1000 nM |
